# Test results as given in US10759767B2 (priority 2012, dated 2020).
# Like-named read-outs stand apart in the source and are kept apart here.
# Columns and labels:
# Leptosphaeria nodorum = assay: Microtest: activity against wheat leaf spots caused by Leptosphaeria nodorum (Leptno); assay type: cell-based
# Septoria tritici = assay: Microtest: activity against leaf blotch on wheat caused by Septoria tritici (Septtr); assay type: cell-based; details: solo product
# Alternaria solani = assay: Microtest: activity against early blight caused by Alternaria solani (Alteso); assay type: cell-based; details: for inhibition of growth at 6.3e-05 ppm: solo 0.000063 ppm
# Phytophthora infestans = assay: microbe, parasite or virus in culture; assay type: cell-based; details: for Observed efficacy: solo product
# Botrytis cinerea = assay: Microtest: activity against the grey mold Botrytis cinerea (Botrci); assay type: cell-based; details: for inhibition of growth at 6.3e-05 ppm: solo 0.000063 ppm
# Pyricularia oryzae = assay: microbe, parasite or virus in culture; assay type: cell-based; details: for Observed efficacy: solo product
# [1] = second Septtr microtest, 0.016 ppm
# [2] = Botrytis cinerea, 168 h, read-out: Observed efficacy
# [3] = Botrytis cinerea, 168 h, solo 0.063 ppm, read-out: Observed efficacy
# [4] = Zymoseptoria tritici, 168 h, second Septtr microtest, 0.000016 ppm, read-out: Observed efficacy
# [5] = Alternaria solani, 168 h, read-out: Observed efficacy
# [6] = Phytophthora infestans, 168 h, read-out: Observed efficacy
# [7] = Pyricularia oryzae, 168 h, read-out: Observed efficacy
# [8] = second Septtr microtest, 16 ppm
# [9] = second Septtr microtest, 63 ppm
smiles,measurement,setting,value
CC#CC(O)(Cn1cncn1)c1ccc(Oc2ccc(Cl)cc2)cc1C(F)(F)F (stereo not shown),melting point,,137 °C
OC(Cn1cncn1)(c1ccc(Oc2ccc(Cl)cc2)cc1Cl)C1CC1 (stereo not shown),melting point,,110 °C
CC1COC(Cn2cncn2)(c2ccc(Oc3ccc(Cl)cc3)cc2Cl)O1 (stereo not shown) [Difenoconazol],Observed efficacy,Leptosphaeria nodorum; solo 0.016 ppm,29
same,Observed efficacy,Septoria tritici; [1],26%
same,Observed efficacy,Alternaria solani; solo 0.004 ppm,5
same,Observed efficacy,Alternaria solani; solo 0.016 ppm,5
same,Observed efficacy,Phytophthora infestans; 4 ppm,30
Fc1ccc([C@]2(Cn3cncn3)O[C@H]2c2ccccc2Cl)cc1 [Epoxiconazol],Observed efficacy,Botrytis cinerea; solo 0.016 ppm,11
same,Observed efficacy,Septoria tritici; [1],16%
same,Observed efficacy,Alternaria solani; solo 0.004 ppm,5
same,Observed efficacy,Alternaria solani; solo 0.016 ppm,8
same,Observed efficacy,Phytophthora infestans; 4 ppm,27
O=c1c2cc(F)ccc2nc(-n2cncn2)n1-c1ccc(Cl)cc1Cl [Fluquinconazol],Observed efficacy,Septoria tritici; 0.004 ppm,0%
same,Observed efficacy,Phytophthora infestans; 4 ppm,0%
same,Observed efficacy,Pyricularia oryzae; 1 ppm,1%
"CC(O)(Cn1cncn1)c1ccc(Oc2ccc(Cl)cc2)cc1C(F)(F)F (stereo not shown) [I-3, 2-[4-(4-chlorophenoxy)-2-(trifluoromethyl)phenyl]-1-(1,2,4-triazol-1-yl)propan-2-ol]",inhibition of growth at 4e-06 ppm,"Botrytis cinerea; Botrytis cinerea, 168 h, solo 0.000004 ppm, read-out: Observed efficacy",0%
same,inhibition of growth at 1.6e-05 ppm,"Botrytis cinerea; Botrytis cinerea, 168 h, solo 0.000016 ppm, read-out: Observed efficacy",5%
same,inhibition of growth at 6.3e-05 ppm,Botrytis cinerea; [2],0%
same,inhibition of growth at […],Botrytis cinerea; [3],23%
same,inhibition of growth at 6.3e-05 ppm,"Leptosphaeria nodorum; Parastagonospora nodorum, 168 h, solo product, 0.000063 ppm, read-out: Observed efficacy",26%
same,inhibition of growth at 2.5e-07 ppm,"Septoria tritici; Zymoseptoria tritici, 168 h, second Septtr microtest, 0.00000025 ppm, read-out: Observed efficacy",8%
same,inhibition of growth at 1e-06 ppm,"Septoria tritici; Zymoseptoria tritici, 168 h, second Septtr microtest, 0.000001 ppm, read-out: Observed efficacy",5%
same,inhibition of growth at 4e-06 ppm,"Septoria tritici; Zymoseptoria tritici, 168 h, second Septtr microtest, 0.000004 ppm, read-out: Observed efficacy",14%
same,inhibition of growth at 1.6e-05 ppm,Septoria tritici; [4],16%
same,Observed efficacy,Septoria tritici; 0.000016 ppm,16
same,Observed efficacy,Septoria tritici; 0.004 ppm,54
same,inhibition of growth at 4e-06 ppm,"Alternaria solani; Alternaria solani, 168 h, solo 0.000004 ppm, read-out: Observed efficacy",5%
same,inhibition of growth at 6.3e-05 ppm,Alternaria solani; [5],8%
same,Observed efficacy,"Alternaria solani; solo product, 0.000016 ppm",0%
same,inhibition of growth at 4 ppm,Phytophthora infestans; [6],4%
same,inhibition of growth at 16 ppm,Phytophthora infestans; [6],4%
same,inhibition of growth at 0.004 ppm,Pyricularia oryzae; [7],0%
same,inhibition of growth at 1 ppm,Pyricularia oryzae; [7],37%
"OC(Cn1cncn1)(c1ccc(Oc2ccc(Cl)cc2)cc1C(F)(F)F)C1CC1 (stereo not shown) [I-4, 1-[4-(4-chlorophenoxy)-2-(trifluoromethyl)phenyl]-1-cyclopropyl-2-(1,2,4-triazol-1-yl)ethanol]",inhibition of growth at 6.3e-05 ppm,Botrytis cinerea; [2],4%
same,inhibition of growth at […],"Botrytis cinerea; Botrytis cinerea, 168 h, solo 0.00025 ppm, read-out: Observed efficacy",2%
same,inhibition of growth at 0.001 ppm,"Botrytis cinerea; Botrytis cinerea, 168 h, solo 0.001 ppm, read-out: Observed efficacy",5%
same,inhibition of growth at […],Botrytis cinerea; [3],4%
same,inhibition of growth at […],"Botrytis cinerea; Botrytis cinerea, 168 h, solo 0.25 ppm, read-out: Observed efficacy",17%
same,inhibition of growth at 0.001 ppm,"Leptosphaeria nodorum; Parastagonospora nodorum, 168 h, solo 0.001 ppm, read-out: Observed efficacy",15%
same,inhibition of growth at 1.6e-05 ppm,Septoria tritici; [4],3%
same,inhibition of growth at 6.3e-05 ppm,"Septoria tritici; Zymoseptoria tritici, 168 h, second Septtr microtest, 0.000063 ppm, read-out: Observed efficacy",8%
same,inhibition of growth at 0.001 ppm,"Septoria tritici; Zymoseptoria tritici, 168 h, 0.001 ppm, read-out: Observed efficacy",0%
same,Observed efficacy,"Septoria tritici; second Septtr microtest, 0.001 ppm",0%
same,Observed efficacy,Septoria tritici; 0.016 ppm,18
same,inhibition of growth at 6.3e-05 ppm,Alternaria solani; [5],5%
same,inhibition of growth at […],"Alternaria solani; Alternaria solani, 168 h, solo 0.00025 ppm, read-out: Observed efficacy",7%
same,inhibition of growth at 0.001 ppm,"Alternaria solani; Alternaria solani, 168 h, solo 0.001 ppm, read-out: Observed efficacy",10%
same,inhibition of growth at […],"Alternaria solani; Alternaria solani, 168 h, solo 0.25 ppm, read-out: Observed efficacy",33%
same,inhibition of growth at 4 ppm,Phytophthora infestans; [6],3%
same,inhibition of growth at 16 ppm,Phytophthora infestans; [6],9%
same,inhibition of growth at 1 ppm,Pyricularia oryzae; [7],47%
"CCCCCCCCc1c(CC)nc2ncnn2c1N [II-1, ametoctradin, reference compound]",Observed efficacy,Botrytis cinerea; solo 16 ppm,3
same,Observed efficacy,Botrytis cinerea; solo 63 ppm,4
same,Observed efficacy,Alternaria solani; solo 4 ppm,5
same,Observed efficacy,Alternaria solani; solo 16 ppm,2
same,Observed efficacy,Alternaria solani; solo 63 ppm,6
"CO/C=C(/C(=O)OC)c1ccccc1Oc1cc(Oc2ccccc2C#N)ncn1 [II-3, azoxystrobin, reference compound]",Observed efficacy,Botrytis cinerea; solo 4 ppm,14
same,Observed efficacy,Botrytis cinerea; solo 16 ppm,23
same,Observed efficacy,Alternaria solani; solo 0.004 ppm,6
same,Observed efficacy,Alternaria solani; solo 0.016 ppm,14
"CCOC(=O)C1CC(=O)C(=C(O)C2CC2)C(=O)C1 (stereo not shown) [II-3a, trinexapac-ethyl, reference compound]",inhibition of growth at 63 ppm,"Leptosphaeria nodorum; Parastagonospora nodorum, 168 h, solo 63 ppm, read-out: Observed efficacy",17%
same,Observed efficacy,"Septoria tritici; second Septtr microtest, 4 ppm",13%
same,Observed efficacy,Alternaria solani; solo 4 ppm,12
same,Observed efficacy,Alternaria solani; solo 16 ppm,27
"Cn1cc(C(=O)Nc2ccc(F)cc2-c2ccc(Cl)c(Cl)c2)c(C(F)F)n1 [II-6, bixafen, reference compound]",Observed efficacy,Botrytis cinerea; solo 0.016 ppm,8
same,Observed efficacy,Alternaria solani; solo 0.001 ppm,5
same,Observed efficacy,Alternaria solani; solo 0.004 ppm,38
same,Observed efficacy,Phytophthora infestans; 1 ppm,25
"O=C(Nc1ccccc1-c1ccc(Cl)cc1)c1cccnc1Cl [II-7, boscalid, reference compound]",Observed efficacy,Leptosphaeria nodorum; solo 4 ppm,23
same,Observed efficacy,Alternaria solani; solo 0.001 ppm,5
same,Observed efficacy,Alternaria solani; solo 0.004 ppm,6
"COC(=O)Nc1nc2ccccc2[nH]1 [II-8, carbendazim, reference compound]",Observed efficacy,Septoria tritici; [8],16%
same,Observed efficacy,Alternaria solani; solo 4 ppm,7
same,Observed efficacy,Alternaria solani; solo 16 ppm,10
same,Observed efficacy,Alternaria solani; solo 63 ppm,34
same,inhibition of growth at 4 ppm,Phytophthora infestans; [6],24%
"N#Cc1c(Cl)c(Cl)c(Cl)c(C#N)c1Cl [II-11, chlorothalonil, reference compound]",Observed efficacy,Leptosphaeria nodorum; solo 1 ppm,28
"Cc1ccc(-c2c(Cl)nc(C#N)n2S(=O)(=O)N(C)C)cc1 [II-12, cyazofamid, reference compound]",Observed efficacy,Septoria tritici; [8],40%
same,Observed efficacy,Alternaria solani; solo 4 ppm,14
same,Observed efficacy,Alternaria solani; solo 16 ppm,35
"N#Cc1nn(-c2c(Cl)cc(C(F)(F)F)cc2Cl)c(N)c1[S+]([O-])C(F)(F)F (stereo not shown) [II-20c, fipronil, reference compound]",Observed efficacy,Alternaria solani; solo 1 ppm,6
same,Observed efficacy,Alternaria solani; solo 4 ppm,2
"N#Cc1c[nH]cc1-c1cccc2c1OC(F)(F)O2 [II-34, fludioxonil, reference compound]",Observed efficacy,"Alternaria solani; solo product, 0.016 ppm",13%
same,Observed efficacy,Phytophthora infestans; 1 ppm,0%
"CO/N=C(/C1=NOCCO1)c1ccccc1Oc1ncnc(Oc2ccccc2Cl)c1F [II-37, fluoxastrobin, reference compound]",Observed efficacy,Alternaria solani; solo 0.016 ppm,11
"Cn1cc(C(=O)Nc2ccccc2-c2cc(F)c(F)c(F)c2)c(C(F)F)n1 [II-42, fluxapyroxad, reference compound]",Observed efficacy,Alternaria solani; solo 0.001 ppm,4
same,Observed efficacy,"Alternaria solani; solo product, 0.001 ppm",4%
"CC(C)C1C2CCC1c1c(NC(=O)c3cn(C)nc3C(F)F)cccc12 (stereo not shown) [II-50, isopyrazam, reference compound]",Observed efficacy,Botrytis cinerea; solo 0.016 ppm,6
same,Observed efficacy,Alternaria solani; solo 0.016 ppm,15
"Cc1ccc(C(C)NC(=O)[C@@H](NC(=O)OC(C)C)C(C)C)cc1 (stereo partly shown) [II-51, iprovalicarb, reference compound]",Observed efficacy,Botrytis cinerea; solo 4 ppm,2
same,Observed efficacy,Botrytis cinerea; solo 16 ppm,3
same,Observed efficacy,Botrytis cinerea; solo 63 ppm,6
same,Observed efficacy,Leptosphaeria nodorum; solo 16 ppm,19
same,Observed efficacy,Alternaria solani; solo 4 ppm,1
same,Observed efficacy,Alternaria solani; solo 16 ppm,2
same,Observed efficacy,Alternaria solani; solo 63 ppm,1
"COC(=O)N(OC)c1ccccc1COc1ccn(-c2ccc(Cl)cc2)n1 [II-66, pyraclostrobin, reference compound]",inhibition of growth at 0.016 ppm,"Leptosphaeria nodorum; Parastagonospora nodorum, 168 h, solo 0.016 ppm, read-out: Observed efficacy",24%
same,Observed efficacy,"Septoria tritici; second Septtr microtest, 0.004 ppm",37%
same,Observed efficacy,Septoria tritici; 0.001 ppm,12
same,Observed efficacy,Septoria tritici; 0.004 ppm,37
same,inhibition of growth at 0.016 ppm,"Alternaria solani; Alternaria solani, 168 h, solo 0.016 ppm, read-out: Observed efficacy",18%
same,Observed efficacy,Alternaria solani; solo 0.004 ppm,8
same,inhibition of growth at 0.001 ppm,Pyricularia oryzae; [7],5%
"CON=C(C(=O)OC)c1ccccc1CON=C(C)c1cccc(C(F)(F)F)c1 [II-92, trifloxystrobin, reference compound]",Observed efficacy,Alternaria solani; solo 0.004 ppm,7
same,Observed efficacy,Alternaria solani; solo 0.016 ppm,11
same,inhibition of growth at 1 ppm,Phytophthora infestans; [6],37%
C[N+]1(C)CCCCC1.[Cl-] [Mepiquat-cl],Observed efficacy,Botrytis cinerea; solo 16 ppm,11
same,Observed efficacy,Leptosphaeria nodorum; solo 63 ppm,28
same,Observed efficacy,Septoria tritici; [9],16%
same,Observed efficacy,Alternaria solani; solo 16 ppm,10
same,Observed efficacy,Alternaria solani; solo 63 ppm,16
CC1(C)CCC(Cc2ccc(Cl)cc2)C1(O)Cn1cncn1 (stereo not shown) [Metconazol],Observed efficacy,Septoria tritici; [1],24%
same,Observed efficacy,Alternaria solani; solo 0.016 ppm,17
CCN(Cc1ccc(Cl)nc1)/C(=C/[N+](=O)[O-])NC [Nitenpyram],Observed efficacy,Leptosphaeria nodorum; solo 63 ppm,23
same,Observed efficacy,Septoria tritici; [9],10%
same,Observed efficacy,Alternaria solani; solo 4 ppm,2
same,Observed efficacy,Alternaria solani; solo 16 ppm,2
same,Observed efficacy,Alternaria solani; solo 63 ppm,8
CCC(=O)C1=C([O-])CC(C(=O)[O-])CC1=O.[Ca+2] (stereo not shown) [Prohexadion-Ca],Observed efficacy,Botrytis cinerea; solo 4 ppm,10
same,Observed efficacy,Botrytis cinerea; solo 16 ppm,5
same,Observed efficacy,Botrytis cinerea; solo 63 ppm,4
same,Observed efficacy,Leptosphaeria nodorum; solo 63 ppm,23
same,Observed efficacy,Septoria tritici; [9],15%
same,Observed efficacy,Alternaria solani; solo 4 ppm,6
same,Observed efficacy,Alternaria solani; solo 16 ppm,2
same,Observed efficacy,Alternaria solani; solo 63 ppm,2
OC(Cc1ccccc1Cl)(Cn1nc[nH]c1=S)C1(Cl)CC1 (stereo not shown) [Prothioconazol],Observed efficacy,Botrytis cinerea; solo 1 ppm,36
same,Observed efficacy,Botrytis cinerea; solo 4 ppm,72
same,Observed efficacy,Leptosphaeria nodorum; solo 1 ppm,43
same,Observed efficacy,Septoria tritici; [1],17%
same,Observed efficacy,Alternaria solani; solo 1 ppm,66
CC(C)(C)C(O)(CCc1ccc(Cl)cc1)Cn1cncn1 (stereo not shown) [Tebuconazol],Observed efficacy,Botrytis cinerea; solo 0.016 ppm,9
same,Observed efficacy,Alternaria solani; solo 0.016 ppm,8
same,Observed efficacy,Phytophthora infestans; 1 ppm,25
CN1COCN(Cc2cnc(Cl)s2)/C1=N\[N+](=O)[O-] [Thiamethoxam],Observed efficacy,Leptosphaeria nodorum; solo 1 ppm,22
same,Observed efficacy,Leptosphaeria nodorum; solo 4 ppm,51
same,Observed efficacy,"Septoria tritici; second Septtr microtest, 1 ppm",57%
same,Observed efficacy,Alternaria solani; solo 1 ppm,10
same,Observed efficacy,Alternaria solani; solo 4 ppm,51
CC1(C)CC/C(=C\c2ccc(Cl)cc2)C1(O)Cn1cncn1 (stereo not shown) [Triticonazol],Observed efficacy,Phytophthora infestans; 16 ppm,0%
same,Observed efficacy,Pyricularia oryzae; 1 ppm,1%
same,Observed efficacy,Pyricularia oryzae; 4 ppm,59%
